# Experiments:
# normal mice = experiment: Spontaneous locomotor activity after oral administration to normal mice (SCANET apparatus); type: in vivo, C57BL/6 mice (male); conditions: p.o.
# Description: The enhancing effects of compound (IX) on the spontaneous locomotor activity were examined in normal mice.
# Compound (IX) was orally administrated to C57BL/6 mice (male) and the spontaneous locomotor activity was measured with a locomotor activity measuring apparatus (SCANET, TOYO sangyo). Mice were familiarized to the cage of the apparatus for at least 60 min. Compound (IX) (1,3,10 mg/kg) or vehicle (vehicle, distilled water Otsuka) was administrated orally. The spontaneous locomotor activity was measured for 5 hours after the mice were returned to the cage.
# 6-OHDA-treated mice = experiment: Spontaneous locomotor activity in mice injected intracerebroventricularly with 6-OHDA (Parkinson's disease model); type: in vivo, C57BL/6 mice (male); conditions: 6-OHDA mice
# Description: Mice injected intracerebroventricularly with a monoaminergic toxin, 6-OHDA were used as a model for Parkinson's disease.
# To C57BL/6 mice (male) were administrated desipramine (desipramine (25 mg/kg, i.p., 0.5%), lactic acid) and 6-OHDA (40 μg/μl/mouse, 0.2% ascorbic acid) was injected in the cerebroventricule after 30 min. The mice were placed in the locomotor activity measuring apparatus after one day. Compound (IX) (0.3, 1 mg/kg), with or without L-DOPA (10 mg/kg, i.p., dissolved in 0.1N HCl and diluted with distilled water or injection, Otsuka Pharmaceutical), was administrated after 90 min, then the spontaneous locomotor activity was measured for 5 hours. When L-DOPA was administrated, mice were pre-treated with carbidopa (25 mg/kg, i.p., 0.5% lactic acid) before 30 min.
# [1] = system: reserpine-induced cataleptic posture; experiment: Catalepsy test in mice pre-treated with reserpine; type: in vivo, ddy mice (male); conditions: 1 hour after administration
# Description: The effects of compound (IX) in single administration and in combination with L-DOPA on cataleptic responses were examined in mice pre-treated with a monoamine-depleting drug, reserpine. Reserpine (5 mg/kg, i.p., Apoplon Inj, Daiichi Pharmaceutical) was administrated to ddy mice (male). On the next day, compound (IX) (0.3, 1, 3 mg/kg, p.o.) with or without L-DOPA (25, 100 mg/kg, i.p., dissolved in 0.1N HCl and diluted with distilled water for injection (Otsuka Pharmaceutical)) was administrated to the mice and catalepsy test was performed after 1 hour. When L-DOPA was administrated, mice were pre-treated with carbidopa (25 mg/kg, i.p., 0.5% lactic acid) before 30 min. The forelimbs or hindlimbs of each mouse were placed on a 4.5 cm high horizontal bar and the time was measured (cut off time 30 sec) until both legs reach the floor. The cataleptic responses were scored as follows (less than 5 sec.: 0 point, 5 sec. to less than 10 sec.: 1 point, 10 sec to less than 15 sec.: 2 points, 15 sec. to than 20 sec.: 3 points, 20 sec. to less than 25 sec.: 4 points, 25 sec. to less than 30 sec.: 5 points, 30 sec. or more: 6 points). For forelimbs, the scores for 3 repetitive tests were summated. For hindlimbs, the tests were performed 5 times and of which 3 scores were summated excluding the highest and lowest scores. The catalepsy scores were calculated as the total scores for forelimbs and hindlimbs.
# MPTP-treated mice = experiment: Spontaneous locomotor activity in MPTP-treated mice (Parkinson's disease model); type: in vivo, C57BL/6 mice (male); conditions: MPTP 40 mg/kg x 2 mice, compound (IX) alone 3 mg/kg p.o., P < 0.05 vs MPTP-treated control group
# Description: Mice injected with a dopaminergic toxin, MPTP were used as a model for Parkinson's disease and the effects of single administration of compound (IX) on the reduction of the spontaneous locomotor activity caused by MPTP-treatment were examined.
# MPTP (40 mg/kg, i.p., saline) was injected twice at 24-hr intervals to C57BL/6 mice (male), and the day after the last administration, the mice were placed in locomotor activity measuring apparatus. After 30 min, compound (IX) alone (0.3, 1, 3 mg/kg, p.o.) was administered.
structure (smiles),measurement,setting,value
C[C@@H]1OC(=O)N[C@@H]1C(=O)NC(Cc1cscn1)C(=O)N1CCC[C@H]1C (stereo in doubt) [Compound (IX)],dose at which the spontaneous locomotor activity was increased,normal mice,≥ 3 mg/kg
same,"spontaneous locomotor activity, Total","6-OHDA-treated mice; compound (IX) 1 mg/kg p.o. in combination with L-DOPA 10 mg/kg i.p. (carbidopa pre-treatment), 5 hours, P < 0.01 vs 6-OHDA-treated group",14468 ± 3618
same,"spontaneous locomotor activity, Total","6-OHDA-treated mice; compound (IX) 1 mg/kg p.o. in combination with L-DOPA 10 mg/kg i.p. (carbidopa pre-treatment), 5 hours, P < 0.01 vs 6-OHDA-treated group, listed as compound (IX)",significant and remarkable increase
same,"spontaneous locomotor activity, Total","6-OHDA-treated mice; compound (IX) 1 mg/kg p.o. in single administration, measured for 5 hours, 1 mg/kg",2512 ± 333
same,"spontaneous locomotor activity, Total","6-OHDA-treated mice; compound (IX) 1 mg/kg p.o. in single administration, measured for 5 hours, listed as compound (IX), 1 mg/kg",did not show significant increase
same,"catalepsy score, mean",[1]; compound (IX) 1 mg/kg p.o. + L-DOPA 100 mg/kg i.p.,2.3
same,"catalepsy score, mean","[1]; compound (IX) 1 mg/kg p.o. + L-DOPA 100 mg/kg i.p., listed as compound (IX)",significant depression effect
same,"catalepsy score, mean",[1]; compound (IX) 3 mg/kg p.o. + L-DOPA 100 mg/kg i.p.,9.2
same,"catalepsy score, mean","[1]; compound (IX) 3 mg/kg p.o. + L-DOPA 100 mg/kg i.p., listed as compound (IX)",significant depression effect
same,"spontaneous locomotor activity, Total",MPTP-treated mice,5463 ± 700
same,"spontaneous locomotor activity, Total",MPTP-treated mice; listed as compound (IX),significantly increased

# — patent US20030191120A1, “Antiparkinsonism drugs” (priority 2000, published 2003)
